In assay [1] the test system is Caco-2 cell monolayer. Put plainly: TEER of Caco-2 cell monolayer. The assay is classed as cell-based, human. The following applies: applied apically 120 min, then removed. Here is the method: First, 5 × 10^4 Caco-2 cells/well, as a gastrointestinal epithelium model were cultured in transwell plates (Thermo Fisher, India) with a pore size of 0.4 μm. Once the TEER values attained 500 Ω cm^2, the cell monolayers were utilized for the subsequent experiments. Initially, mucin (10 mg/mL PBS) was introduced into the apical medium to mimic the occurrence of mucus, whereas PBS without mucin was utilized to represent the condition lacking mucus. Subsequently, IF (20 μL, 100 IU/mL) and 200 μL of CUR formulations (1 mg/mL) were introduced into the upper chambers. While incubating in a water bath at 37 °C, samples were taken from the lower chambers for analysis at various time intervals. A portion of the basolateral medium was taken out and examined using RP-HPLC to quantify the CUR content. The Papp of CUR was determined using the method outlined in a previous study. To analyze intracellular uptake, cells were gathered and underwent multiple freeze-thaw cycles prior to being lysed for 60 min. The concentration of CUR taken up by the cells was assessed using HPLC. Additionally, TEER measurements were recorded to evaluate the effect of CUR formulations on the monolayer's integrity. The baseline TEER readings for the Caco-2 cell layer were recorded. The apical media were then substituted with CUR formulations (200 μL). […] The Papp values for CUR were calculated.

For assay [2], the system named is VAN-induced C57BL/6J mouse model. Put plainly: VAN-induced intestinal epithelial barrier dysfunction and gut inflammation model. The settings on record: 50 mg/kg oral daily, 10 days after VAN.
Experimental: This was succeeded by a daily oral administration of 50 mg/kg UsNFs of CUR for another 10 days, whereas the control group (CON) received standard rodent feed and water (Fig. 5A).
Assay [3] has as its system gut microbiota. Put plainly: 16S rRNA gene sequencing of gut microbiota in VAN-induced mice. The settings on record: heat map-cluster and qPCR analysis. The class given is in vivo, C57BL/6 mice. The text has this:
Faecal microbial genomic DNA was isolated and quantified as described elsewhere. Universal primers were employed to facilitate the amplification of the V3 and V4 domains of the 16S rRNA gene. The obtained amplicons were normalized, aligned to create the sequencing library, and sequenced on an Illumina MiSeq (San Diego, USA). The raw data of 16S rRNA gene sequences were filtered based on high error probability (>0.01) and analyzed by QIIME version (1.9.1). We generated OTUs at an identity threshold of 97 % using UPARSE (version 7.0.1001). NMDS plots were developed using PAST version 2.17 [44]. Heatmap profiles were constructed using R Studio software version 3.6.1. To examine the differentially abundant biomarkers between the different groups, LEfSe analysis was performed. Spearman correlational studies were performed to assess the correlations between VAN-induced inflammation-related parameters and gut bacteria and metabolites.

`COc1cc(/C=C/C(=O)CC(=O)/C=C/c2ccc(O)c(OC)c2)ccc1O` [free-CUR, curcumin]: the “TEER change of cell monolayer” value in assay [1] was “kept the TEER steady”. Moreover, in assay [2], the Colon length result was “no significant decrease” and the MDA levels result is “only partially diminished”. In assay [3], the “Restoring effect on VAN-altered GM” value is recorded as “did not show any significant restoring effects”.

The record behind these values is publication PMC12702354, “Engineered an ultrasmall curcumin oral nanoformulation restores intestinal integrity and gut microbiota dysbiosis” (Materials Today Bio, 2025).
